The source of these data is US9718817B2, “Aryl and heteroaryl ether compounds as ROR gamma modulators” (Glenmark Pharmaceuticals S.A., priority 2014, dated 2017).

For the assay, the target named is T1, GST-tagged ROR gamma ligand binding domain (LBD) (Homo sapiens, UniProt P51449).
T1 construct: purchased Invitrogen
T1 sequence (P51449 269-508 limits assumed): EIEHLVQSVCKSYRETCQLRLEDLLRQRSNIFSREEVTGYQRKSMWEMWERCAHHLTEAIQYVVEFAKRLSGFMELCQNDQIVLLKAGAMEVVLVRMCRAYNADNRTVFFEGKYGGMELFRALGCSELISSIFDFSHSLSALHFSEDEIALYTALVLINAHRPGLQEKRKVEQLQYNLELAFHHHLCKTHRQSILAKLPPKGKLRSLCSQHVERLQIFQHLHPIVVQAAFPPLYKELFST
Briefly: TR-FRET assay for ROR gamma (LanthaScreen co-activator peptide recruitment). It counts as biochemical. To be noted: for inhibition at 1 µM: compound 1 μM; for inhibition at 1 µM / inhibition at 10 µM: TR-FRET ratio 520/495, percent of control; for inhibition at 10 µM: compound 10 μM; for pIC50: class symbols, from dose response curve. From the text: The compounds described herein were screened for ROR gamma modulator activity using the TR-FRET assay by Lantha Screen as described in JBC 2011, 286, 26: 22707-10; and Drug Metabolism and Disposition 2009, 37, 10: 2069-78.
The assay is based on the principle that binding of the agonist to the ROR gamma causes a conformational change around helix 12 in the ligand binding domain, resulting in higher affinity for the co-activator peptide. ROR gamma being constitutively active, the Fluorescein-D22 co-activator peptide used in the assay is recruited in the absence of a ligand. Binding of the co-activator peptide, causes an increase in the TR-FRET signal while binding of an antagonist decreases the recruitment of the co-activator peptide, causing a decrease in the TR-FRET signal compared to control with no compound. The assay was performed using a two-step procedure, pre-incubation step with the compound followed by the detection step on addition of the anti-GST tagged terbium (Tb) and fluorescein tagged fluorophores as the acceptor.
Test compounds or reference compounds such as T0901317 (Calbiochem) were dissolved in dimethylsulfoxide (DMSO) to prepare 10.0 mM stock solutions and diluted to the desired concentration. The final concentration of DMSO in the reaction was 4% (v/v). The assay mixture was prepared by mixing 10 nM of the GST-tagged ROR gamma ligand binding domain (LBD) in the assay buffer containing 25 mM HEPES (pH 7.4), 100 mM NaCl, 5 mM DTT and 0.01% BSA with or without the desired concentration of the compound. The reaction was incubated at 22° C. for 1 hour. The pre-incubation step was terminated by addition of the detection mixture containing 300 nM Fluorescein-D22 co-activator peptide and 10 nM lantha screen Tb-anti GST antibody into the reaction mixture. After shaking for 5 minutes the reaction was further incubated for 1 hour at room temperature and read at 4° C. on an Infinite F500 reader as per the kit instructions (Invitrogen). The inhibition of test compound was calculated based on the TR-FRET ratio of 520/495. The activity was calculated as a percent of control reaction. IC50 values were calculated from dose response curve by nonlinear regression analysis using GraphPad Prism software.
Percentage inhibition at concentrations of 1.0 μM and 10.0 μM are given in the table along with IC50 (nM) details for selected examples.
On the technique in general: Time-resolved FRET reads energy transfer from a long-lived donor to a nearby acceptor.

pIC50: −log10 of the molar value. Some results are limits rather than exact numbers.

As to `CCS(=O)(=O)c1ccc(CC(=O)Nc2ccc(OC3(c4ccc(Cl)c(F)c4)CCN(C)CC3)cc2)cc1` [Example 44, N-{4-[4-(4-Chloro-3-fluoro-phenyl)-1-methyl-piperidin-4-yloxy]-phenyl}-2-(4-ethanesulfonyl-phenyl)-acetamide], the inhibition at 1 µM was 44.6% and the inhibition at 10 µM was determined as 70%.
For the compound `CCS(=O)(=O)c1ccc(CC(=O)Nc2ccc(OC3(c4ccc(Cl)c(F)c4)COC3)cc2)cc1` [Example 45, N-{4-[3-(4-Chloro-3-fluoro-phenyl)-oxetan-3-yloxy]-phenyl}-2-(4-ethanesulfonyl-phenyl)-acetamide], the pIC50 was above 7.30, the inhibition at 1 µM turned out to be 76.8% and the inhibition at 10 µM came out at 85.7%.
Taken in the same sequence, the figures for `CCS(=O)(=O)c1ccc(CC(=O)Nc2ccc(OC3(c4ccc(Cl)c(Cl)c4)COC3)cc2)cc1` [Example 46, N-{4-[3-(3,4-Dichlorophenyl)-oxetan-3-yloxy]-phenyl}-2-(4-ethanesulfonyl-phenyl)-acetamide] were below 7.00, 68.1% and 86.3%.
For `CCS(=O)(=O)c1ccc(CC(=O)Nc2ccc(OC3(c4ccc(Cl)cc4Cl)COC3)cc2)cc1` [Example 47, N-{4-[3-(2,4-Dichlorophenyl)-oxetan-3-yloxy]-phenyl}-2-(4-ethanesulfonyl-phenyl)-acetamide], in that order: above 7.30, 90.3% and 93.2%.
As for `CCS(=O)(=O)c1ccc(CC(=O)Nc2ccc(OC3(c4ccc(C(F)(F)F)c(F)c4)COC3)cc2)cc1` [Example 48, (4-Ethanesulfonyl-phenyl)-N-{4-[3-(3-fluoro-4-trifluoromethyl-phenyl)-oxetan-3-yloxy]-phenyl}-acetamide], the inhibition at 1 µM was 60.3% and the inhibition at 10 µM amounted to 77.4%.
As to `CCS(=O)(=O)c1ccc(CC(=O)Nc2ccc(OC3(c4ccc(Cl)c(Cl)c4)CC3)cc2)cc1` [Example 49, N-{4-[1-(3,4-Dichloro-phenyl)-cyclopropoxy]-phenyl}-2-(4-ethanesulfonyl-phenyl)-acetamide], the pIC50 was 7.00 to 7.30, the inhibition at 1 µM was 69.1% and the inhibition at 10 µM is 80%.
Regarding `CCS(=O)(=O)c1ccc(CC(=O)Nc2ccc(OC3(c4ccc(Cl)c(F)c4)CC3)cc2)cc1` [Example 50, N-{4-[1-(4-Chloro-3-fluoro-phenyl)-cyclopropoxy]-phenyl}-2-(4-ethanesulfonyl-phenyl)-acetamide], the pIC50 is above 7.30, the inhibition at 1 µM was 81.3% and the inhibition at 10 µM stood at 87.9%.
For `CCS(=O)(=O)c1ccc(CC(=O)Nc2ccc(OC3(c4ccc(Cl)cc4F)CC3)cc2)cc1` [Example 51, N-{4-[1-(4-Chloro-2-fluoro-phenyl)-cyclopropoxy]-phenyl}-2-(4-ethanesulfonyl-phenyl)-acetamide], in that order: above 7.30, 85.9% and 87.7%.
For the compound `CCS(=O)(=O)c1ccc(CC(=O)Nc2ccc(OC3(c4ccc(Cl)c(F)c4)CC3)nc2)cc1` [Example 52, N-{6-[1-(4-Chloro-3-fluoro-phenyl)-cyclopropoxy]-pyridin-3-yl}-2-(4-ethanesulfonyl-phenyl)-acetamide], the inhibition at 1 µM is 63.7% and the inhibition at 10 µM came to 83.8%.
For `CCS(=O)(=O)c1ccc(CC(=O)Nc2ccc(OC3(c4ccc(Cl)c(Cl)c4)CC3)nc2)cc1` [Example 53, N-{6-[1-(3,4-Dichloro-phenyl)-cyclopropoxy]-pyridin-3-yl}-2-(4-ethanesulfonyl-phenyl)-acetamide], in that order: 52.6% and 76.5%.
In the case of `CCS(=O)(=O)c1ccc(CC(=O)Nc2ccc(OC3(c4ccc(Cl)c(F)c4)CCC3)nc2)cc1` [Example 54, N-{6-[1-(4-Chloro-3-fluoro-phenyl)-cyclobutoxy]-pyridin-3-yl}-2-(4-ethanesulfonyl-phenyl)-acetamide], the pIC50 is above 7.30, the inhibition at 1 µM came out at 92% and the inhibition at 10 µM was determined as 93.7%.
On to `CCS(=O)(=O)c1ccc(CC(=O)Nc2ccc(OC3(c4ccc(Cl)c(F)c4)CCOCC3)nc2)cc1` [Example 55, N-{6-[4-(4-Chloro-3-fluoro-phenyl)-tetrahydro-pyran-4-yloxy]-pyridin-3-yl}-2-(4-ethanesulfonyl-phenyl)-acetamide], for which the inhibition at 1 µM was 75.5% and the inhibition at 10 µM is 80.3%.
As to `CCS(=O)(=O)c1ccc(CC(=O)Nc2ccc(OC(C)(C)c3ccc(Cl)cc3F)nc2)cc1` [Example 56, N-{6-[1-(4-Chloro-2-fluoro-phenyl)-1-methyl-ethoxy]-pyridin-3-yl}-2-(4-ethanesulfonyl-phenyl)-acetamide], the pIC50 was above 7.30, the inhibition at 1 µM is 83.1% and the inhibition at 10 µM stood at 91.3%.
For `CCS(=O)(=O)c1ccc(CC(=O)Nc2ccc(OC(C)(C)c3ccc(F)cc3Cl)nc2)cc1` [Example 57, N-{6-[1-(2-Chloro-4-fluoro-phenyl)-1-methyl-ethoxy]-pyridin-3-yl}-2-(4-ethanesulfonyl-phenyl)-acetamide], in that order: 7.00 to 7.30, 78% and 91.3%.
Turning to `CCS(=O)(=O)c1ccc(CC(=O)Nc2ccc(OC(C)(C)c3ccc(Cl)cc3Cl)nc2)cc1` [Example 58, N-(6-{[2-(2,4-Dichlorophenyl)propan-2-yl]oxy}pyridin-3-yl)-2-[4-(ethylsulfonyl)phenyl]acetamide], the pIC50 is above 7.30, the inhibition at 1 µM stood at 83.7% and the inhibition at 10 µM worked out at 86.7%.
For `CCS(=O)(=O)c1ccc(CC(=O)Nc2ccc(OC(C)(C)c3ccc(Cl)c(Cl)c3)nc2)cc1` [Example 59, N-{6-[1-(3,4-Dichloro-phenyl)-1-methyl-ethoxy]-pyridin-3-yl}-2-(4-ethanesulfonyl-phenyl)-acetamide], the negative logarithm of the IC50 (pIC50) is above 7.30, the inhibition at 1 µM was 71.8% and the inhibition at 10 µM was 86.7%.
For `CCS(=O)(=O)c1ccc(CC(=O)Nc2ccc(C#CCOc3ccc(Cl)cc3Cl)cc2)cc1` [Example 60, N-{4-[3-(2,4-Dichlorophenoxy)prop-1-yn-1-yl]phenyl}-2-[4-(ethylsulfonyl)phenyl]acetamide], in that order: below 7.00, 92.6% and 90.4%.
Taken in the same sequence, the figures for `CCS(=O)(=O)c1ccc(CC(=O)Nc2ccc(C#CCOc3ccc(Cl)c(Cl)c3)cc2)cc1` [Example 61, N-{4-[3-(3,4-Dichlorophenoxy)prop-1-yn-1-yl]phenyl}-2-[4-(ethylsulfonyl)phenyl]acetamide] were below 7.00, 85.5% and 92.9%.
For `CCS(=O)(=O)c1ccc(CC(=O)Nc2ccc(C#CC(C)(C)Oc3ccc(Cl)c(Cl)c3)cc2)cc1` [Example 62, N-{4-[3-(3,4-Dichlorophenoxy)-3-methylbut-1-yn-1-yl]phenyl}-2-[4-(ethylsulfonyl)phenyl]acetamide], in that order: above 7.30, 86.3% and 90.2%.
For the compound `CCS(=O)(=O)c1ccc(CC(=O)Nc2ccc(C#CC(C)(C)Oc3ccc(Cl)cc3Cl)cc2)cc1` [Example 63, N-{4-[3-(2,4-Dichloro-phenoxy)-3-methyl-but-1-yn-1-yl]-phenyl}-2-(4-ethanesulfonyl-phenyl)-acetamide], the negative logarithm of the IC50 (pIC50) was above 7.30, the inhibition at 1 µM was determined as 80.5% and the inhibition at 10 µM stood at 84.5%.
On to `CCS(=O)(=O)c1ccc(CC(=O)Nc2ccc(C#CC(C)(C)Oc3ccc(Cl)cc3)cc2)cc1` [Example 64, N-{4-[3-(4-Chloro-phenoxy)-3-methyl-but-1-yn-1-yl]-phenyl}-2-(4-ethanesulfonyl-phenyl)-acetamide], for which the pIC50 was above 7.30, the inhibition at 1 µM was 82.2% and the inhibition at 10 µM came out at 84.2%.

Broadly, the inhibition is how much of the control response was suppressed. One may read the pIC50 as the negative decadic logarithm of the IC50, by convention in mol/L. A higher pIC50 goes with a low IC50.
